# According to patent US20120202856A1, “SUBSTITUTED BENZIMDAZOLE DERIVATIVES USEFUL AS TRPM8 RECEPTOR MODULATORS” (priority 2011, published 2012):
# “And” between values parts separate entries of the source, which are not always exact repeats. Identical values can stand only once. Counter-ions that a name gives are not always drawn. Like-named read-outs stand apart in the source and are kept apart here.
# Molecular target: T1, canine TRPM8 (Canis lupus familiaris, UniProt Q1A7N1)
# T1 construct: expressed in transfected cells
# T1 sequence (Q1A7N1 1-1104): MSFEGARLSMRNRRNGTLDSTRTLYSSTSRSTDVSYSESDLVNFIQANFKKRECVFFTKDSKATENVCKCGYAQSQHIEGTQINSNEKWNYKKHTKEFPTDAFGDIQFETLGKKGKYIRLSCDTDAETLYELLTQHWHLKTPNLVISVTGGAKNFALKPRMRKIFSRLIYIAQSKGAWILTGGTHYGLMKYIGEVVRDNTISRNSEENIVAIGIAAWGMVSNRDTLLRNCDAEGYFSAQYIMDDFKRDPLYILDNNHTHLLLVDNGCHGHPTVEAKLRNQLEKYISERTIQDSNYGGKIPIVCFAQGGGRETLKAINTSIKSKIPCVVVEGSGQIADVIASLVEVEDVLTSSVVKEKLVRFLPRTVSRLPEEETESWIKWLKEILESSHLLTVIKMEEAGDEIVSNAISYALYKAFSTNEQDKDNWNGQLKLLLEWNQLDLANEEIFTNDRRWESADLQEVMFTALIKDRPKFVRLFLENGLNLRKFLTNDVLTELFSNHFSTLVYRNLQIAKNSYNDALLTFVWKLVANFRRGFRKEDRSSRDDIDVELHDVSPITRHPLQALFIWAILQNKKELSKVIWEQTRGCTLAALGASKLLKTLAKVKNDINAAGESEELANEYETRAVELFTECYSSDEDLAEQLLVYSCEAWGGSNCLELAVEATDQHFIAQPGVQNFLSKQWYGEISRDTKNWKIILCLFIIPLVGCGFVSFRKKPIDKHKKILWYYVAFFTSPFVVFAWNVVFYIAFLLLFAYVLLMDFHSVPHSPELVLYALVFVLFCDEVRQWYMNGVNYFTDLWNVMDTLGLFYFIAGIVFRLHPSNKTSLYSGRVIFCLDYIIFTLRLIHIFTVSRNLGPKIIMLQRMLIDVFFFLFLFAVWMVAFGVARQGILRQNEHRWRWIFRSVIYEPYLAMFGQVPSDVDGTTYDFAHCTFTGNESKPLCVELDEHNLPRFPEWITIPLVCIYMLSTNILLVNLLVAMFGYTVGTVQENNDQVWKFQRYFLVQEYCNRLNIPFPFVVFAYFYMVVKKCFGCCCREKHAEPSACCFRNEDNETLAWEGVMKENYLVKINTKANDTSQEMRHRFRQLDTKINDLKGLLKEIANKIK
# Assay: In Vitro Canine TRPM8 Functional Assay (intracellular Ca2+ fluorescence, icilin activation, HEK293 cells)
# Type: cell-based
# Conditions: for IC50: HEK293 cells expressing canine TRPM8, icilin activation, individually measured values (batches/salt forms), read-out: IC50 (nM), in vitro TRP M8 Activity
# Description: The changes in fluorescent signal were monitored by a fluorescence plate reader, either a FLIPR™ (Molecular Devices) or FDSS (Hamamatsu). […] Cells were maintained in 5% CO2 at 37° C. At 24 hr prior to assay, cells were seeded in black wall, clear-base poly-D-lysine coated 384-well plates (BD Biosciences, NJ, USA) at a density of 5,000 cells per well in culture medium and grown overnight in 5% CO2 at 37° C. On assay day, growth media was removed, and cells were loaded with Calcium 3 Dye (Molecular Devices) for 35 min at 37° C., under 5% CO2 and then incubated for 25 min at room temperature and atmosphere. Subsequently, cells were tested for agonist-induced increases in intracellular Ca^2+ levels using FLIPR™ or FDSS. […] Maximal fluorescence intensity (FI) achieved upon addition of icilin was exported from the FLIPR™ or FDSS software and further analyzed using GraphPad Prism 3.02 (Graph Pad Software Inc., CA, U.S.A.). Basal FI was subtracted prior to normalizing data to percent of maximal response. Curves were generated using the average of quadruplicate wells for each data point using nonlinear regression of either sigmoidal dose response or sigmoidal dose response (variable slope). Finally, IC50 values were calculated with the best-fit curve determined by GraphPad Prism
# [1] = HEK293, 0.2 μM test compound, individually measured values, read-out: % Inh (%) @0.2 μM, in vitro TRP M8 Activity
# [2] = HEK293, read-out: % Inh (%) @0.2 μM, in vitro TRP M8 Activity, 0.2 μM test compound, individually measured values
IC50,SMILES,other results
13.8 nM,"Cn1nc(C(C)(C)C)c(C(F)(F)F)c1-c1nc2cc(-c3ccccc3F)cc(C(F)(F)F)c2[nH]1 [Compound 185, 2-(5-tert-Butyl-2-methyl-4-trifluoromethyl-2H-pyrazol-3-yl)-5-(2-fluoro-phenyl)-7-trifluoromethyl-1H-benzimidazole sodium salt]",inhibition at 0.2 µM [1]: 99%
5.5 nM,"Cc1ccccc1-c1ccc2[nH]c(-c3cc(C(C)(C)C)nn3C)nc2c1 [Compound 55, 2-(5-tert-Butyl-2-methyl-2H-pyrazol-3-yl)-5-o-tolyl-1H-benzimidazole trifluoroacetic acid salt]",
2.7 nM and 5.1 nM,"Cn1nc(C(C)(C)C)c(Cl)c1-c1nc2cc(-c3ccccc3Cl)cc(C(F)(F)F)c2[nH]1 [Compound 128, 2-(5-tert-Butyl-4-chloro-2-methyl-2H-pyrazol-3-yl)-5-(2-chloro-phenyl)-7-trifluoromethyl-1H-benzimidazole sodium salt]",inhibition at 0.2 µM [1]: 99%
21 nM,"Cn1nc2c(c1-c1nc3cc(-c4ccccc4Cl)ccc3[nH]1)CCCC2(C)C [Compound 32, 3-[5-(2-Chlorophenyl)-1H-benzimidazol-2-yl]-2,7,7-trimethyl-4,5,6,7-tetrahydro-2H-indazole sodium salt]",
20 nM,"Cn1nc(C2CCC2)cc1-c1nc2cc(-c3ccccc3Cl)ccc2[nH]1 [Compound 39, 2-(5-Cyclobutyl-2-methyl-2H-pyrazol-3-yl)-5-(2-chlorophenyl)-1H-benzimidazole sodium salt]",
39 nM,"CCC(CC)c1cc(-c2nc3ccc(-c4ccccc4C(F)(F)F)cc3[nH]2)on1 [Compound 26, 2-[3-(1-Ethylpropyl)-isoxazol-5-yl]-6-(2-trifluoromethylphenyl)-1H-benzimidazole hydrochloride]",
3.6 nM and 9.7 nM,"Cn1nc(C(C)(C)C)c(Cl)c1-c1nc2cc(-c3c(F)cccc3OC(F)(F)F)ccc2[nH]1 [Compound 88, 2-(5-tert-Butyl-4-chloro-2-methyl-2H-pyrazol-3-yl)-5-(2-fluoro-6-trifluoromethoxy-phenyl)-1H-benzimidazole hydrochloride]",
145 nM,"FC(F)(F)c1ccccc1-c1ccc2[nH]c(-c3cc(Cl)no3)nc2c1 [Compound 33, 2-(3-Chloroisoxazol-5-yl)-5-(2-trifluoromethylphenyl)-1H-benzimidazole sodium salt]",
49.6 nM,"CC(C)n1nc(C(C)(C)C)cc1-c1nc2cc(-c3ccccc3OC(F)(F)F)ccc2[nH]1 [Compound 47, 2-(5-tert-Butyl-2-isopropyl-2H-pyrazol-3-yl)-5-(2-trifluoromethoxyphenyl)-1H-benzimidazole sodium salt]",

# Continued, molecule first:
SMILES,IC50,other results
"CC(C)(C)c1ncc(-c2nc3cc(-c4ccccc4C(F)(F)F)ccc3[nH]2)s1 [Compound 100, 2-(2-tert-Butyl-thiazol-5-yl)-5-(2-trifluoromethyl-phenyl)-1H-benzimidazole hydrochloride]",33.7 nM,inhibition at 0.2 µM [1]: 91%
"CCC(CC)c1cc(-c2nc3ccc(-c4ccccc4OC(F)(F)F)cc3[nH]2)on1 [Compound 27, 2-[3-(1-Ethylpropyl)-isoxazol-5-yl]-6-(2-trifluoromethoxyphenyl)-1H-benzimidazole hydrochloride]",46 nM,
"Cc1oc(C(C)(C)C)c(C#N)c1-c1nc2cc(-c3ccccc3C(F)(F)F)cc(C(F)(F)F)c2[nH]1 [Compound 184, 2-tert-Butyl-5-methyl-4-[7-trifluoromethyl-5-(2-trifluoromethyl-phenyl)-1H-benzimidazol-2-yl]-furan-3-carbonitrile sodium salt]",6.4 nM,inhibition at 0.2 µM [1]: 101%
"Cc1oc(-c2nc3cc(-c4ccccc4Cl)cc(C(F)(F)F)c3[nH]2)nc1C(C)(C)C [Compound 196, 2-(4-tert-Butyl-5-methyl-oxazol-2-yl)-5-(2-chloro-phenyl)-7-trifluoromethyl-1H-benzimidazole hydrochloride]",,inhibition at 0.2 µM [1]: 39%
"CC(C)(C)c1cc(-c2nc3cc(-c4ccccc4F)cc(C(F)(F)F)c3[nH]2)on1 [Compound 139, 2-(3-tert-Butyl-isoxazol-5-yl)-5-(2-fluoro-phenyl)-7-trifluoromethyl-1H-benzimidazole sodium salt]",5.6 nM and 12 nM,inhibition at 0.2 µM [2]: 99%
"CC(C)(C)c1cc(-c2nc3cc(-c4c(F)cccc4C(F)(F)F)ccc3[nH]2)on1 [Compound 82, 2-(3-tert-Butyl-isoxazol-5-yl)-5-(2-fluoro-6-trifluoromethyl-phenyl)-1H-benzimidazole hydrochloride]",11.6 nM and 1.8 nM,
"CC(C)c1cc(-c2nc3cc(-c4ccccc4OC(F)(F)F)ccc3[nH]2)on1 [Compound 5, 2-(3-Isopropylisoxazol-5-yl)-5-(2-trifluoromethoxyphenyl)-1H-benzimidazole sodium salt]",22.5 nM,
"CCn1nc(C(C)(C)C)cc1-c1nc2cc(-c3ccccc3OC(F)(F)F)ccc2[nH]1 [Compound 45, 2-(5-tert-butyl-2-ethyl-2H-pyrazol-3-yl)-5-(2-trifluoromethoxyphenyl)-1H-benzimidazole sodium salt]",51.2 nM,
"Cn1nc(C(C)(C)C)c(C(F)(F)F)c1-c1nc2cc(-c3ccccc3Cl)cc(C(F)(F)F)c2[nH]1 [Compound 186, 2-(5-tert-Butyl-2-methyl-4-trifluoromethyl-2H-pyrazol-3-yl)-5-(2-chloro-phenyl)-7-trifluoromethyl-1H-benzimidazole sodium salt]",20 nM,inhibition at 0.2 µM [1]: 99%
"Cc1c(C(C)(C)C)nn(C)c1-c1nc2cc(-c3c(C(F)(F)F)cccc3C(F)(F)F)ccc2[nH]1 [Compound 97, 5-(2,6-Bis-trifluoromethyl-phenyl)-2-(5-tert-butyl-2,4-dimethyl-2H-pyrazol-3-yl)-1H-benzimidazole hydrochloride]",6.9 nM,
"Cn1nc(C2CCC2)cc1-c1nc2cc(-c3ccccc3C(F)(F)F)ccc2[nH]1 [Compound 37, 2-(5-Cyclobutyl-2-methyl-2H-pyrazol-3-yl)-5-(2-trifluoromethyl-phenyl)-1H-benzimidazole sodium salt]",55.9 nM,
"Cn1nc(C(C)(C)C)c(C#N)c1-c1nc2cc(-c3c(F)cccc3F)cc(Cl)c2[nH]1 [Compound 171, 3-tert-Butyl-5-[7-chloro-5-(2,6-difluoro-phenyl)-1H-benzimidazol-2-yl]-1-methyl-1H-pyrazole-4-carbonitrile sodium salt]",8.2 nM,inhibition at 0.2 µM [1]: 100%
"Cn1nc(C(C)(C)C)c(C#N)c1-c1nc2cc(-c3c(F)cccc3C(F)(F)F)cc(C(F)(F)F)c2[nH]1.[Na] [Compound 152, 3-tert-Butyl-5-[5-(2-fluoro-6-trifluoromethyl-phenyl)-7-trifluoromethyl-1H-benzimidazol-2-yl]-1-methyl-1H-pyrazole-4-carbonitrile sodium salt]",5.3 nM and 6.5 nM and 5 nM,"% Inh (%) @0.2 μM, in vitro TRP M8 Activity (0.2 μM test compound, individually measured values, sodium salt, 0.2 µM): 99%; inhibition at 0.2 µM [2]: 100%"
"Cn1nc(C(F)(F)F)cc1-c1nc2cc(-c3ccccc3C(F)(F)F)ccc2[nH]1 [Compound 40, 2-(5-Trifluoromethyl-2-methyl-2H-pyrazol-3-yl)-5-(2-trifluoromethylphenyl)-1H-benzimidazole sodium salt]",81.5 nM,
"FC(F)(F)c1ccccc1-c1ccc2[nH]c(-c3cc(Br)no3)nc2c1 [Compound 42, 2-(3-Bromoisoxazol-5-yl)-5-(2-trifluoromethylphenyl)-1H-benzimidazole sodium salt]",151 nM,
